# Measured values as given in patent US20240150370A1, “BICYCLIC PYRIDINE DERIVATIVE” (Sumitomo Pharma Co., Ltd., priority 0001, published 2024).
# Where a name gives a salt, the structure may show the parent alone.
# How the values were obtained:
# human TAAR1 receptor = human TAAR1 receptor (Homo sapiens (Human), UniProt Q96RJ0); test: Evaluation of agonist activity on human TAAR1 receptor (cAMP assay); type: cell-based; details: cAMP in human TAAR1-expressing CHO cells, relative to 100 μM tyramine; for activation at 0.1 µM / activation at 1 µM / activation at 10 µM: CHO, 0.5 h, read-out: TAAR1 agonist activity at each concentration (%); for TAAR1 agonist activity at each concentration (%): dihydrochloride
# Sequence of human TAAR1 receptor (Q96RJ0 whole entry, the tested form may be a part): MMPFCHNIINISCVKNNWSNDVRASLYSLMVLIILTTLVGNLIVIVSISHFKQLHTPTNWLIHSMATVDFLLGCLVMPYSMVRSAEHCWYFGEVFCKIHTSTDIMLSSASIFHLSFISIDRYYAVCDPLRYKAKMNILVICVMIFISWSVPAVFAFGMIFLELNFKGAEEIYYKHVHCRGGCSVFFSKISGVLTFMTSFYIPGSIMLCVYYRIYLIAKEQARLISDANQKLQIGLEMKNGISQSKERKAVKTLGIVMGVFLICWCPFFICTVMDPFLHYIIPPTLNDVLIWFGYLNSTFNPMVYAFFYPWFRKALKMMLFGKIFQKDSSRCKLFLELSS
# Experimental: TAAR1 is a G protein-coupled receptor that binds to G proteins (Gas), and activation of the TAAR1 receptor by agonists induces an increase in intracellular cAMP levels. Therefore, the agonist activity of the sample on the human TAAR1 receptor was evaluated using the cAMP assay method.
# cAMP Hunter™ CHO-K1 TAAR1 Gs Cell Line, a cell expressing human TAAR1 receptor, was purchased. Human TAAR1-expressing CHO cells were seeded in a 96-well plate, and after culturing for 24 hours, a sample dissolved in DMSO was added and incubated at 37° C. for 30 minutes. A sample for cAMP measurement was prepared according to the cAMPHiRange kit protocol. The amount of cAMP produced by the sample was measured by time-resolved fluorescence using EnVision (excitation wavelength: 330 nm, fluorescence wavelength […]/665 nm).
# Sample %=100×{(Csamp)−(Cblank)}/{(Ctyramine)−(Cblank)} • Csamp: count of sample, Ctyramine: count of 100 μM tyramine, Cblank: count of blank
# hERG channel = hERG channel (Homo sapiens (Human), UniProt Q12809); test: Evaluation of hERG channel inhibitory activity (whole-cell patch clamp, hERG-CHO cells); type: cell-based; details: autopatch clamp, read-out: hERG inhibition IC50
# Sequence of hERG channel (Q12809 whole entry): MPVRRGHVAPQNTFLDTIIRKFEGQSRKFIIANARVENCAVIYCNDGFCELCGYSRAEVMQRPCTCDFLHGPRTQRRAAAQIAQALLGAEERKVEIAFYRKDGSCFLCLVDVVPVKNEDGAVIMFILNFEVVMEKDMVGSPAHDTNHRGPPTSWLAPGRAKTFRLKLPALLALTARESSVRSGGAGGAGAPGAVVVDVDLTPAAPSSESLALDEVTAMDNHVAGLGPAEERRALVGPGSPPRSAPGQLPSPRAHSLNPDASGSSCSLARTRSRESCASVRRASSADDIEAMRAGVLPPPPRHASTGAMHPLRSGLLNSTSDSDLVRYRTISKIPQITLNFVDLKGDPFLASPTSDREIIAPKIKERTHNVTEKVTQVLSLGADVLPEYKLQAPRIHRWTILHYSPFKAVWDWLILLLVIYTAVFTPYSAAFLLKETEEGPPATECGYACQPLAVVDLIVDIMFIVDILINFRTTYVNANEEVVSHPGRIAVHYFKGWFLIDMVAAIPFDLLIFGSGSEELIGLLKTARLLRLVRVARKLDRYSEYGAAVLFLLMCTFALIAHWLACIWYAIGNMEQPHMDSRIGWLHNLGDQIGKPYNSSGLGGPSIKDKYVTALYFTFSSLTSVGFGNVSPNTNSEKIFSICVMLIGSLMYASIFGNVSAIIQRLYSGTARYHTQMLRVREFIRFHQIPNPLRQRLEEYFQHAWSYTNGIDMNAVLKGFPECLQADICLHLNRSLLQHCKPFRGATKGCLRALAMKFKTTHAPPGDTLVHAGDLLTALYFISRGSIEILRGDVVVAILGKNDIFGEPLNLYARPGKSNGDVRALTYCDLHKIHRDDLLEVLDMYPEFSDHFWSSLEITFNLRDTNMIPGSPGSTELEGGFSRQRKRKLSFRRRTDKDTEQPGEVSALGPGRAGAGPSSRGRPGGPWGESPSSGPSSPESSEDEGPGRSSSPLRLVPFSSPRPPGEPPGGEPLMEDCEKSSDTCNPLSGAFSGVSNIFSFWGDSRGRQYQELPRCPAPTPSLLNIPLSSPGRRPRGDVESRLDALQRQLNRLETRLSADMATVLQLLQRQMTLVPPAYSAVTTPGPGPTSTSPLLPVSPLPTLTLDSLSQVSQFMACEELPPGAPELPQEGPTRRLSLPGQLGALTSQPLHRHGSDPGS
SMILES,activation at 0.1 µM (human TAAR1 receptor; 100 nM) [%],activation at 1 µM (human TAAR1 receptor; 1000 nM) [%],activation at 10 µM (human TAAR1 receptor; 10000 nM) [%],IC50 (hERG channel) [µM],TAAR1 agonist activity at each concentration (%) (human TAAR1 receptor; 100 nM),TAAR1 agonist activity at each concentration (%) (human TAAR1 receptor; 1000 nM),TAAR1 agonist activity at each concentration (%) (human TAAR1 receptor; 10000 nM)
"Cc1ccnc2c1O[C@H](C)[C@H]2CN [Example 34, 1-[(2R,3S)-2,7-dimethyl-2,3-dihydrofuro[3,2-b]pyridin-3-yl]methanamine dihydrochloride]",10,48,83,> 100,,,
"C[C@@H]1COc2cccnc2[C@@H]1CN (stereo in doubt) [Example 2, rac-1-[(3S,4S)-3-methyl-3,4-dihydro-2H-pyrano[3,2-b]pyridin-4-yl]methanamine dihydrochloride]",7,37,75,> 100,,,
C[C@@H]1Sc2cccnc2[C@@H]1CN (racemic) [Example 16],6,37,76,68.6,,,
"CNC[C@H]1c2ncc(F)cc2O[C@@H]1C [Example 49, 1-[(2R,3S)-6-fluoro-2-methyl-2,3-dihydrofuro[3,2-b]pyridin-3-yl]-N-methylmethanamine dihydrobromide]",25,63,75,> 100,,,
CNC[C@H]1c2nc(C)ccc2O[C@@H]1C [Example 48],38,74,86,> 100,,,
CC1(C)Oc2cccnc2C1CN (centres unmarked) [Example 23],35,74,91,> 100,,,
Cc1ccc2c(n1)C(CN)CS2 (centres unmarked) [Example 11],20,58,79,> 100,,,
C[C@H]1Oc2ccc(F)nc2[C@@H]1CN [Example 29],51,93,104,> 100,,,
Cc1cc(C)c2c(n1)[C@H](CN)[C@@H](C)O2 [Example 84],15,51,79,> 100,,,
"NC[C@@H]1CCSc2cccnc21 (single isomer, unassigned) [Example 40, dihydrochloride]",25,57,68,> 100,,,
NCC1CCSc2cccnc21 (centres unmarked) [Example 9],15,53,70,> 100,,,
CNC[C@H]1c2nccc(C)c2O[C@@H]1C [Example 51],10,46,77,> 100,,,
C[C@@H]1C[C@@H](CN)c2ncccc2S1 (racemic) [Example 14],10,47,74,> 100,,,
"C[C@H]1Oc2ccc(Cl)nc2[C@@H]1CN [Example 38, 1-[(2R,3S)-5-chloro-2-methyl-2,3-dihydrofuro[3,2-b]pyridin-3-yl]methanamine dihydrochloride]",52,86,93,> 100,,,
"CNC[C@H]1c2ncccc2O[C@@H]1C [Example 46, N-methyl-1-[(2R,3S)-2-methyl-2,3-dihydrofuro[3,2-b]pyridin-3-yl]methanamine dihydrochloride]",31,70,80,> 100,,,
CNC[C@@H]1C[C@@H](C)Oc2ccc(C)nc21 [Example 47],13,52,84,> 100,,,
"NC[C@H]1CSc2cccnc21 (single isomer, unassigned) [Example 41, dihydrochloride]",12,38,65,> 100,,,
NCC1c2ncccc2OC12CC2 (centres unmarked) [Example 58],36,74,82,> 100,,,
"CNCC1CCSc2cccnc21 (racemic) [Example 45, rac-1-(3,4-dihydro-2H-thiopyrano[3,2-b]pyridin-4-yl)-N-methylmethanamine dihydrochloride]",13,51,77,> 100,,,
"CC[C@@H]1Oc2cccnc2[C@H]1CN (stereo in doubt) [Example 44, rel-1-[(2S,3R)-2-ethyl-2,3-dihydrofuro[3,2-b]pyridin-3-yl]methanamine dihydrochloride]",13,48,79,> 100,,,
"Cc1ccc2c(n1)C(CN)C1(CC1)O2 (racemic) [Example 90, rac-1-(5′-methyl-3′H-spiro[cyclopropane-1,2′-furo[3,2-b]pyridine]-3′-yl)methanamine dihydrochloride]",54,85,94,71.8,,,
"CNC[C@@H]1C[C@@H](C)Oc2cccnc21 [Example 5, N-methyl-1-[(2R,4S)-2-methyl-3,4-dihydro-2H-pyrano[3,2-b]pyridin-4-yl]methanamine dihydrochloride]",,,,> 100,24,68,90
Cc1ccc2c(n1)C(CN)CCS2 (centres unmarked) [Example 12],21,58,75,> 100,,,
CC[C@H]1Oc2cccnc2[C@@H]1CN (stereo in doubt) [Example 22],11,56,84,> 100,,,
Cc1ccc2c(n1)C(CN)C(C)(C)O2 (centres unmarked) [Example 83],59,91,99,> 100,,,
CNC[C@H]1c2ncc(Cl)cc2O[C@@H]1C [Example 50],12,45,63,> 100,,,
